# According to patent US8134015B2, “Compound inhibiting in vivo phosphorous transport and medicine containing the same” (Kyowa Hakko Kirin Co., Ltd., priority 2003, dated 2012):
# Target: T1, rat NaPi-2b (Rattus norvegicus, UniProt Q9JJ09)
# T1 construct: expressed in transfected cells; host or cells: Xenopus oocytes injected with cRNA
# T1 sequence (Q9JJ09 1-695): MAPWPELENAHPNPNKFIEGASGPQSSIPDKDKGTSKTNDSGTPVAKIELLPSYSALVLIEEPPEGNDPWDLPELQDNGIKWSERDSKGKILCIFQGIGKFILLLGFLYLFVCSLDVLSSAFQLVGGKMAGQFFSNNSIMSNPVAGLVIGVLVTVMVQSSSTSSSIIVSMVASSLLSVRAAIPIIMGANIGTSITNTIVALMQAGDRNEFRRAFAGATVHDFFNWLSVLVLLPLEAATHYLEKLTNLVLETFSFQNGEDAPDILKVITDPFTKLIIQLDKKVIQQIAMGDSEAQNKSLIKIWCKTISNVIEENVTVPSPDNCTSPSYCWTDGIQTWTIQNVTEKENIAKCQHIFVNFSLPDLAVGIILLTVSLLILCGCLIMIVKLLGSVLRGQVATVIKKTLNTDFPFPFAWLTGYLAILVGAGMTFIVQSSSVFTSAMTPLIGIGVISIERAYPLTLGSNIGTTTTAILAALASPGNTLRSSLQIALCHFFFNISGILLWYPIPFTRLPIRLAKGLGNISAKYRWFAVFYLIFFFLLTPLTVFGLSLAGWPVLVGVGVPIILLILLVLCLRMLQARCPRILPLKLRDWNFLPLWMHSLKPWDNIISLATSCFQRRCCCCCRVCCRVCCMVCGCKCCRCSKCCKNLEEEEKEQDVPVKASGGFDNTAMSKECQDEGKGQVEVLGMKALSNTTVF
# Test: Sodium-dependent phosphate uptake of Xenopus oocytes which expressed NaPi-2b (32P)
# Format: cell-based
# Details: Xenopus oocytes expressing rat NaPi-2b, 32P radioactive phosphorus; read-out: IC50 (phosphate uptake inhibitory activity)
# Outline: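 Inhibition at 300 μM and 100 μM was read off one inhibition curve of 32P phosphate uptake. Uptake was measured in Xenopus oocytes cultured 2 days after injection of cRNA for cloned rat NaPi-2b.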
row,IC50,Compound
1,1550 nM,"CCN(CC)CCN(C)Cc1cccc(C(=O)Nc2ccc(N3CCCC3)cc2C(=O)N/N=C/c2ccc(OC)cc2)c1 [Compound 918, 3-{[(2-Diethylamino-ethyl)-methyl-amino]-methyl}-N-[2-(4-methoxy-benzylidene-hydrazinocarbonyl)-4-pyrrolidin-1-yl-phenyl]-benzamide]"
2,310 nM,"Cc1ccc(/C=N/NC(=O)c2cc(N3CCCC3)ccc2NC(=O)c2cccc(CSCCO)c2)cc1C [Compound 919, N-[2-(3,4-Dimethyl-benzylidene-hydrazinocarbonyl)-4-pyrrolidin-1-yl-phenyl]-3-(2-hydroxy-ethylsulfanylmethyl)-benzamide]"
3,< 1000 nM,"O=C(Nc1ccc(N2CCCC2)cc1C(=O)N/N=C/c1ccc(Cl)c(C(F)(F)F)c1)c1cccc(CSCCO)c1 [Compound 920, N-[2-(4-Chloro-3-trifluoromethyl-benzylidene-hydrazinocarbonyl)-4-pyrrolidin-1-yl-phenyl]-3-(2-hydroxy-ethylsulfanylmethyl)-benzamide]"
4,1220 nM,"COc1ccc(/C=N/NC(=O)c2cc(N3CCCC3)ccc2NC(=O)c2cccc(CSCCO)c2)cc1 [Compound 921, 3-(2-Hydroxy-ethylsulfanylmethyl)-N-[2-(4-methoxy-benzylidene-hydrazinocarbonyl)-4-pyrrolidin-1-yl-phenyl]-benzamide]"
5,2890 nM,"CCN(CC)CCN(C)Cc1cccc(C(=O)Nc2ccc(N3CCCN(C)CC3)cc2C(=O)N/N=C/c2ccc(Cl)c(C(F)(F)F)c2)c1 [Compound 922, N-[2-(4-Chloro-3-trifluoromethyl-benzylidene-hydrazinocarbonyl)-4-(4-methyl-[1,4]diazepan-1-yl)-phenyl]-3-{[(2-diethylamino-ethyl)-methyl-amino]-methyl}-benzamide]"
6,18800 nM,"O=C(Nc1ccc(N2CCN(CCO)CC2)cc1C(=O)N/N=C/c1ccc(Cl)c(C(F)(F)F)c1)c1cccc(CSCCO)c1 [Compound 923, N-{2-(4-Chloro-3-trifluoromethyl-benzylidene-hydrazinocarbonyl)-4-[4-(2-hydroxy-ethyl)-piperazin-1-yl]-phenyl}-3-(2-hydroxy-ethylsulfanylmethyl)-benzamide]"
7,40200 nM,"CCN(CC)CCN(C)Cc1cccc(C(=O)Nc2ccc(N3CCN(CCO)CC3)cc2C(=O)N/N=C/c2ccc(Cl)c(C(F)(F)F)c2)c1 [Compound 924, N-{2-(4-Chloro-3-trifluoromethyl-benzylidene-hydrazinocarbonyl)-4-[4-(2-hydroxy-ethyl)-piperazin-1-yl]-phenyl}-3-{[(2-diethylamino-ethyl)-methyl-amino]-methyl}-benzamide]"
8,25500 nM,"O=C(Nc1ccc(N2CCCC(C(=O)O)C2)cc1C(=O)N/N=C/c1ccc(Cl)c(C(F)(F)F)c1)c1cccc(CSCCO)c1 (stereo not drawn) [Compound 925, 1-{3-(4-Chloro-3-trifluoromethyl-benzylidene-hydrazinocarbonyl)-4-[3-(2-hydroxy-ethylsulfanylmethyl)-benzoylamino]-phenyl}-piperidine-3-carboxylic acid]"
9,< 1000 nM,"Cc1ccc(/C=N/NC(=O)c2cc(N3CCSCC3)ccc2NC(=O)c2cccc(CSCCO)c2)cc1C [Compound 926, N-[2-(3,4-Dimethyl-benzylidene-hydrazinocarbonyl)-4-thiomorpholin-4-yl-phenyl]-3-(2-hydroxy-ethylsulfanylmethyl)-benzamide]"
10,< 1000 nM,"O=C(Nc1ccc(N2CCSCC2)cc1C(=O)N/N=C/c1ccc(Cl)c(C(F)(F)F)c1)c1cccc(CSCCO)c1 [Compound 927, N-[2-(4-Chloro-3-trifluoromethyl-benzylidene-hydrazinocarbonyl)-4-thiomorpholin-4-yl-phenyl]-3-(2-hydroxy-ethylsulfanylmethyl)-benzamide]"
11,< 1000 nM,"COc1ccc(/C=N/NC(=O)c2cc(N3CCSCC3)ccc2NC(=O)c2cccc(CSCCO)c2)cc1 [Compound 928, 3-(2-Hydroxy-ethylsulfanylmethyl)-N-[2-(4-methoxy-benzylidene-hydrazinocarbonyl)-4-thiomorpholin-4-yl-phenyl]-benzamide]"
12,< 1000 nM,"CCN(CC)CCN(C)Cc1cccc(C(=O)Nc2ccc(N3CCSCC3)cc2C(=O)N/N=C/c2ccc(Cl)c(C(F)(F)F)c2)c1 [Compound 929, N-[2-(4-Chloro-3-trifluoromethyl-benzylidene-hydrazinocarbonyl)-4-thiomorpholin-4-yl-phenyl]-3-{[(2-diethylamino-ethyl)-methyl-amino]-methyl}-benzamide]"
13,137000 nM,"COc1ccc(C(=O)Nc2ccc(N3CCCCC3)cc2C(=O)N/N=C/c2ncc[nH]2)cc1OC [Compound 937, N-[2-(1H-Imidazol-2-ylmethylene-hydrazinocarbonyl)-4-piperidin-1-yl-phenyl]-3,4-dimethoxy-benzamide]"
14,1410 nM,"COc1cc(/C=N/NC(=O)c2cc(N3CCCCC3)ccc2NC(=O)c2ccc(OC)c(OC)c2)ccc1O [Compound 938, N-[2-(4-Hydroxy-3-methoxy-benzylidene-hydrazinocarbonyl)-4-piperidin-1-yl-phenyl]-3,4-dimethoxy-benzamide]"
15,< 3000 nM,"COc1ccc(C(=O)Nc2ccc(N3CCOCC3)cc2C(=O)N/N=C/c2ccc(C)c(C)c2)cc1OC [Compound 939, N-[2-(3,4-Dimethyl-benzylidene-hydrazinocarbonyl)-4-morpholin-4-yl-phenyl]-3,4-dimethoxy-benzamide]"
16,30600 nM,"COc1cc(/C=N/NC(=O)c2cc(N3CCOCC3)ccc2NC(=O)c2ccc(OC)c(OC)c2)ccc1O [Compound 940, N-[2-(4-Hydroxy-3-methoxy-benzylidene-hydrazinocarbonyl)-4-morpholin-4-yl-phenyl]-3,4-dimethoxy-benzamide]"

# Same assay, conditions: phosphate uptake, oocytes expressing rat NaPi-2b; 300 μM, determined from inhibition curve
row,inhibition at 300 µM,Compound
1,40.2%,"COc1ccc(/C=N/NC(=O)c2cc(Br)sc2NC(=O)c2cccc(CN(C)C)c2)cc1 [Compound 930, N-[5-Bromo-3-(4-methoxy-benzylidene-hydrazinocarbonyl)-thiophen-2-yl]-3-dimethylaminomethyl-benzamide]"
2,31.2%,"CCN(CC)CCN(C)Cc1cccc(C(=O)Nc2ccc(N3CCCN(C)CC3)cc2C(=O)N/N=C/c2ccc(OC)cc2)c1 [Compound 931, 3-{[(2-Diethylamino-ethyl)-methyl-amino]-methyl}-N-[2-(4-methoxy-benzylidene-hydrazinocarbonyl)-4-(4-methyl-[1,4]diazepan-1-yl)-phenyl]-benzamide]"
3,36.1%,"CN1CCCN(c2ccc3nc(-c4cccc(CSCCO)c4)n(/N=C/c4ccc(Cl)c(C(F)(F)F)c4)c(=O)c3c2)CC1 [Compound 932, 3-[(4-Chloro-3-trifluoromethyl-benzylidene)-amino]-2-[3-(2-hydroxy-ethylsulfanylmethyl)-phenyl]-6-(4-methyl-[1,4]diazepan-1-yl)-3 H-quinazolin-4-one]"
4,37.6%,"CCN(CC)CCN(C)Cc1cccc(-c2nc3ccc(N4CCCN(C)CC4)cc3c(=O)n2/N=C/c2ccc(OC)cc2)c1 [Compound 933, 2-(3-{[(2-Diethylamino-ethyl)-methyl-amino]-methyl}-phenyl)-3-[(4-methoxy-benzylidene)-amino]-6-(4-methyl-[1,4]diazepan-1-yl)-3H-quinazolin-4-one]"
5,39.3%,"Cc1ccc(/C=N/NC(=O)c2cc(N3CCCC(C(=O)O)C3)ccc2NC(=O)c2cccc(CSCCO)c2)cc1C (stereo not drawn) [Compound 934, 1-{3-(3,4-Dimethyl-benzylidene-hydrazinocarbonyl)-4-[3-(2-hydroxy-ethylsulfanylmethyl)-benzoylamino]-phenyl}-piperidine-3-carboxylic acid]"
